Results published in PMC10096175, “An In Vitro Antimicrobial, Anticancer and Antioxidant Activity of N–[(2–Arylmethylthio)phenylsulfonyl]cinnamamide Derivatives” (Molecules, 2023).
In brackets after ≈: the same amount, converted by molar mass. Like-named read-outs stand apart in the source and are kept apart here.

Legend:
[1] = tested on: quorum sensing system of C. violaceum; design: method as in doi:10.1016/j.ibiod.2018.06.003; conditions: cited from earlier work
ABTS assay = conditions: ABTS radical scavenging; 10 min, 30 °C
Protocol: The ABTS assay was performed spectrophotometrically. […] ABTS solution with methanol/DMSO (9/1 v/v) was used as a control. After 10 min of incubation at 30 °C in the dark, the absorbance was analyzed at λ = 750 nm by a 96-well microplate reader (Epoch, BioTek System, Santa Clara, CA, USA). Ascorbic acid was used as a standard.
ABTS inhibition was calculated by the following equation:ABTS Inhibition (%) = [Acontrol − Asample)/Acontrol] × 100%
(§1) IC50 values of the samples were calculated using program GraFit v. 7.0 (Erithacus Software). The analysis was performed three times, with tree replications in each (n = 9). Statistical analysis was performed with one-way ANOVA with Tuckey’s post-hoc test.

DPPH assay = conditions: DPPH radical scavenging; 40 min, room temperature
Protocol: The DPPH assay was performed spectrophotometrically. The amount of 30 µL of different concentrations of samples, dissolved in methanol/DMSO (9/1 v/v), was mixed with 170 µL of 0.06 mM DPPH methanolic solution and completed with methanol to a final volume of 300 µL. DPPH methanolic solution with methanol/DMSO (9/1 v/v) was used as a control. After 40 min of incubation at room temperature in the dark, the absorbance was analyzed at λ = 510 nm by a 96-well microplate reader (Epoch, BioTek System, Santa Clara, CA, USA). Ascorbic acid was used as a standard.
DPPH inhibition was calculated by the following equation:DPPH Inhibition (%) = [Acontrol − Asample)/Acontrol] × 100%
as §1

S. aureus ATCC 6538 [2] = assay: Blood bacteriostatic activity test in sheep blood; assay type: cell-based, Staphylococcus aureus; conditions: 24 h, 37 °C, t0 1.30 × 10^8, control t24 2.28 × 10^9
Protocol: (§2) The manifestation of the bactericidal properties of chemical compounds is low minimum bactericidal concentration (MBC) values, which allows many groups of researchers to check the killing rate over time (time killing tests). It is an important element in determining the strength and speed of action of a compound on bacteria. Such studies are usually carried out in bacterial media, without additional factors influencing the results.
(§3) This step was carried out on two types of bacteria, S. aureus ATCC 6538 (Figure 8 and Table 2) and S. epidermidis ATCC 14 990 (Figure 9 and Table 3).
(§4) The number of bacteria at the initial time (t0) was 1.30 × 10^8 CFU/mL for S. aureus and 1.70 × 10^7 CFU/mL for S. epidermidis. Live bacterial cells were assayed after 24 h of incubation at 37 °C. […] Bacterial controls without compounds grew unhindered and after 24 h (t24) were 2.28 × 10^9 for S. aureus and 5.10 × 10^8 CFU/mL for S. epidermidis. […] It can be assumed that the tested compounds were not related to any fraction of the blood. Attention should be paid to the S. epidermidis tests and the difference between the number of bacteria at t0 and after 24 h of incubation for each compound. The number of bacteria at t0 was 1.70 × 10^7 CFU/mL and after 24 h it decreased to, e.g., 9.40 × 10^6 CFU/mL for compounds 16e and 7.80 × 10^6 CFU/mL for compound 17c. It can be assumed that the tested compounds after being added to blood samples prevented bacteria from multiplying. However, under these conditions, the phagocytic cells take up the bacteria. […] This can be explained by much greater variety of mechanisms of action of S. aureus against phagocytic cells than of S. epidermidis. This can be integrated with the bacterial cell compounds, e.g., protein A, as well as enzymes that bacteria can secrete outside the cell, e.g., coagulase and staphylokinase. Additional studies should be conducted to check how the tested compounds affect the enzymes secreted by S. aureus.
(§5) The assay was performed as previously described by with a modification. Pure sheep blood was used for the research. Two strains of bacteria S. aureus ATCC 6538 and S. epidermidis ATCC 14990 were used with an inoculum density of approximately 10^8 CFU/mL at 0 time. The final concentration of the compounds was 0.5, 1, 2, 4, and 8 µg/mL, and the final volume of the assay tube was 1 mL. Bacterial survivors were determined on MH agar plates (CFU/mL) at 24 h after exposure.

C. albicans ATCC 10231 = assay: MIC determination, reference fungal strain (microdilution); assay type: cell-based; conditions: Candida albicans, ATCC10231
HeLa cells = assay: MTT assay; assay type: cell-based, human; conditions: for IC50: Homo sapiens, HeLa, 24 h
HEK-293 cells = assay: MTT assay, noncancerous cells; assay type: cell-based; conditions: Homo sapiens
B. subtilis ATCC 6633 = assay: MIC determination, reference strain (microdilution); assay type: cell-based; conditions: Bacillus subtilis, ATCC6633
E. hirae ATCC 10541 = assay: as above; assay type: cell-based; conditions: Enterococcus hirae, ATCC10541
E. faecalis ATCC 51299 = assay: as above; assay type: cell-based; conditions: Enterococcus faecalis, ATCC51299
C. diphtheriae = assay: as above; assay type: cell-based; conditions: Corynebacterium diphtheriae
MCF-7 cells = assay: MTT assay; assay type: cell-based, human; conditions: for IC50: Homo sapiens
[3] = tested on: S. epidermidis ATCC 14990; assay: Blood bacteriostatic activity test in sheep blood; assay type: cell-based, Staphylococcus epidermidis; conditions: 24 h, 37 °C, t0 1.70 × 10^7, control t24 5.10 × 10^8
Protocol: as §2, §3, §4, §5

SKOV-3 cells = assay: MTT assay; assay type: cell-based, human; conditions: for IC50: Homo sapiens
in vitro = conditions: sheep, pH 7
S. aureus ATCC 6538 [4] = assay: MIC determination, reference strain (microdilution); assay type: cell-based; conditions: Staphylococcus aureus, ATCC6538
E. coli ATCC 8739 = assay: as above; assay type: cell-based; conditions: Escherichia coli, ATCC8739
[5] = tested on: S. epidermidis ATCC 14990; assay: as above; assay type: cell-based; conditions: Staphylococcus epidermidis, ATCC14990
[6] = tested on: cancer cells (HeLa, SKOV-3, MCF-7); assay: MTT assay, summary statements on the cancer cells; assay type: cell-based; conditions: Homo sapiens, cell line not specified, MTT
[7] = C. albicans ATCC 10231, read-out: MIC
[8] = MTT, 24 h treatment, read-out: IC50
[9] = MCF7, MCF-7, MTT, 24 h treatment, read-out: IC50
[10] = SK-OV-3, SKOV-3, MTT, 24 h treatment, read-out: IC50

## O=C(O)C=Cc1ccc2c(c1)OCO2 [3,4–(methylenedioxy)cinnamic acid]
[1]; at 5 mM
  Quorum sensing inhibition: completely inhibit

## O=C(O)C=Cc1ccc(Cl)cc1 [4–chlorocinnamic acid]
[1]; at 5 mM
  Quorum sensing inhibition: completely inhibit

## O=C(O)C=Cc1ccc([N+](=O)[O-])cc1 [4–nitrocinnamic acid]
[1]; at 5 mM
  Quorum sensing inhibition: completely inhibit

## O=C1O[C@H]([C@@H](O)CO)C(O)=C1O [Ascorbic acid, ascorbic acid, reference compound]
ABTS assay
  IC50 ABTS: 18.99 ± 0.03 µg/mL (≈ 108 µM)
DPPH assay
  IC50 DPPH: 10.78 ± 0.11 µg/mL (≈ 61.2 µM)

## Cc1cc(S(=O)(=O)NC(=O)C=Cc2ccccc2)c(SCc2cccc3ccccc23)cc1Cl [Compound 16a, N–[4–Chloro–5–methyl–2–(naphthalen–1–ylmethylthio)benzenesulfonyl]cinnamamide]
S. aureus ATCC 6538 [2]; 1 µg/mL
  Number of viable cells of Staphylococcus aureus: 1.23 × 10^8 CFU/mL
S. aureus ATCC 6538 [2]; 2 µg/mL
  Number of viable cells of Staphylococcus aureus: 7.50 × 10^8 CFU/mL
S. aureus ATCC 6538 [2]; 4 µg/mL
  Number of viable cells of Staphylococcus aureus: 8.10 × 10^8 CFU/mL
S. aureus ATCC 6538 [2]; 8 µg/mL
  Number of viable cells of Staphylococcus aureus: 1.29 × 10^8 CFU/mL
C. albicans ATCC 10231
  MIC: > 125 µg/mL
HeLa cells
  IC50: 13.7 ± 1.12 µg/mL (≈ 27 µM)
HEK-293 cells; HEK293, 24 h
  IC50: 13.6 ± 0.19 µg/mL (≈ 26.7 µM)
B. subtilis ATCC 6633
  MIC: 62.5 ± 0.29 µg/mL (≈ 123 µM)
E. hirae ATCC 10541
  MIC: 4 ± 0.15 µg/mL (≈ 7.87 µM)
ABTS assay
  IC50 ABTS: 717.99 ± 1.01 µg/mL (≈ 1410 µM)
E. faecalis ATCC 51299
  MIC: 2 ± 0.58 µg/mL (≈ 3.94 µM)
DPPH assay
  IC50 DPPH: 1048.33 ± 0.48 µg/mL (≈ 2060 µM)
C. diphtheriae
  MIC: 62.5 ± 0.29 µg/mL (≈ 123 µM)
MCF-7 cells; MCF7, 24 h
  IC50: 14.3 ± 0.28 µg/mL (≈ 28.2 µM)
[3]; 1 µg/mL
  Number of viable cells of Staphylococcus epidermidis: 3.00 × 10^6 CFU/mL
[3]; 2 µg/mL
  Number of viable cells of Staphylococcus epidermidis: 4.00 × 10^6 CFU/mL
[3]; 4 µg/mL
  Number of viable cells of Staphylococcus epidermidis: 1.10 × 10^6 CFU/mL
[3]; 8 µg/mL
  Number of viable cells of Staphylococcus epidermidis: 2.50 × 10^6 CFU/mL
SKOV-3 cells; SK-OV-3, 24 h
  IC50: 11.8 ± 0.8 µg/mL (≈ 23.3 µM)
In vitro
  hemolysis at 24 h, 125 µg/mL: 43%
S. aureus ATCC 6538 [4]
  MIC: 1 ± 0.29 µg/mL (≈ 1.97 µM)
E. coli ATCC 8739
  MIC: > 125 µg/mL
[5]
  MIC: 2 ± 0.58 µg/mL (≈ 3.94 µM)

## Cc1cc(S(=O)(=O)NC(=O)/C=C/c2ccc([N+](=O)[O-])cc2)c(SCc2cccc3ccccc23)cc1Cl [Compound 16f, (E)–N–{4–Chloro–5–methyl–2–[(naphthalen–1–yl)methylthio]phenylsulfonyl}–3–(4–nitrophenyl)acrylamide]
C. albicans ATCC 10231; [7]
  MIC: > 125 µg/mL
HeLa cells; [8]
  IC50: 62.8 ± 3.75 µg/mL (≈ 114 µM)
HeLa cells; IC50 HEK-293 / IC50 HeLa
  Selectivity index (SI): 1.5
HEK-293 cells; HEK293, HEK-293, MTT, 24 h treatment, read-out: IC50
  IC50: 94.5 ± 4.7 µg/mL (≈ 171 µM)
B. subtilis ATCC 6633; B. subtilis ATCC 6633, Co-trimoxazole as sulfamethoxazole/trimethoprim, read-out: MIC
  MIC: 62.5 ± 0.29 µg/mL (≈ 113 µM)
E. hirae ATCC 10541; E. hirae ATCC 10541, Co-trimoxazole as sulfamethoxazole/trimethoprim, read-out: MIC
  MIC: 4 ± 0.15 µg/mL (≈ 7.23 µM)
ABTS assay
  IC50 ABTS: 597.53 ± 1.3 µg/mL (≈ 1080 µM)
E. faecalis ATCC 51299; E. faecalis ATCC 51299, Co-trimoxazole as sulfamethoxazole/trimethoprim, read-out: MIC
  MIC: 4 ± 0.15 µg/mL (≈ 7.23 µM)
DPPH assay
  IC50 DPPH: 310.50 ± 0.73 µg/mL (≈ 561 µM)
C. diphtheriae; C. diphtheriae, Co-trimoxazole as sulfamethoxazole/trimethoprim, read-out: MIC
  MIC: 62.5 ± 0.29 µg/mL (≈ 113 µM)
MCF-7 cells; [9]
  IC50: 93.5 ± 4.71 µg/mL (≈ 169 µM)
MCF-7 cells; IC50 HEK-293 / IC50 MCF-7
  Selectivity index (SI): 1.0
[6]
  IC50: > 60 µg/mL
SKOV-3 cells; [10]
  IC50: 70.53 ± 0.21 µg/mL (≈ 128 µM)
SKOV-3 cells; IC50 HEK-293 / IC50 SKOV-3
  Selectivity index (SI): 1.3
In vitro; defibrinated sheep blood diluted 1:9 v/v with PBS
  hemolysis at 24 h, 31.25 µg/mL: 12 to 20%
S. aureus ATCC 6538 [4]; S. aureus ATCC 6538, ± SD, Co-trimoxazole as sulfamethoxazole/trimethoprim, read-out: MIC
  MIC: 1 ± 0.29 µg/mL (≈ 1.81 µM)
E. coli ATCC 8739; E. coli ATCC 8739, Co-trimoxazole as sulfamethoxazole/trimethoprim, read-out: MIC
  MIC: > 125 µg/mL
[5]; S. epidermidis ATCC 14990, Co-trimoxazole as sulfamethoxazole/trimethoprim, read-out: MIC
  MIC: 2 ± 0.58 µg/mL (≈ 3.62 µM)

## CC(=O)N1CCN(c2ccc(OCC3COC(Cn4ccnc4)(c4ccc(Cl)cc4Cl)O3)cc2)CC1 (centres unmarked) [Ketoconazole, reference compound]
C. albicans ATCC 10231; [7]
  MIC: > 125 µg/mL

## CC[C@]1(O)C[C@@H]2CN(CCc3c([nH]c4ccccc34)[C@@](C(=O)OC)(c3cc4c(cc3OC)N(C)[C@H]3[C@@](O)(C(=O)OC)[C@H](OC(C)=O)[C@]5(CC)C=CCN6CC[C@]43[C@@H]65)C2)C1 [V. sulphate, Vinblastine sulphate, reference compound]
HeLa cells; [8]
  IC50: 0.005 ± 0.0004 µg/mL
MCF-7 cells; [9]
  IC50: 0.007 ± 0.0008 µg/mL
SKOV-3 cells; [10]
  IC50: 0.008 ± 0.0003 µg/mL

## C=CCOC(=O)C=Cc1ccccc1 [allyl cinnamate]
[1]; at 1 mM
  Quorum sensing inhibition: completely inhibit

## NC(=O)C=Cc1ccccc1 [cinnamamide]
[1]; at 5 mM
  Quorum sensing inhibition: completely inhibit

## O=C(O)/C=C/c1ccccc1 [cinnamic acid]
[1]; at 5 mM
  Quorum sensing inhibition: completely inhibit

## OCC=Cc1ccccc1 [cinnamyl alcohol]
[1]; at 1 mM
  Quorum sensing inhibition: completely inhibit

## CC(=Cc1ccccc1)C(=O)O [α–methylcinnamic acid]
[1]; at 5 mM
  Quorum sensing inhibition: completely inhibit
